Measurements reported in paper PMC8416862 (Clinical Pharmacokinetics, 2021).

How the values were obtained:
[1] = Trial 2: plasma pharmacokinetics of single-dose furosemide and rosuvastatin; type: in vivo, healthy male and female subjects; conditions: single dose co-administered with oral semaglutide versus alone
[2] = cited from earlier work
[3] = co-administered with once-weekly subcutaneous semaglutide; cited from earlier work
CYP enzymes = conditions: in vitro studies; cited from earlier work
drug transporters = conditions: in vitro studies; cited from earlier work

## CC(C)c1nc(N(C)S(C)(=O)=O)nc(-c2ccc(F)cc2)c1/C=C/[C@@H](O)C[C@@H](O)CC(=O)O [Rosuvastatin, rosuvastatin]
[1]
  increase in maximum concentration: 10%
  increase in total exposure: 41%
[2]; oral administration
  bioavailability, orally administered: approximately 20%

## NS(=O)(=O)c1cc(C(=O)O)c(NCc2ccco2)cc1Cl [Furosemide, furosemide]
[1]
  decrease in the maximum concentration: 34%

## C#C[C@]1(O)CC[C@H]2[C@@H]3CCC4=CC(=O)CC[C@@H]4[C@H]3CC[C@@]21CC [levonorgestrel]
[3]
  increase in AUC: 20%

## CC[C@H](C)[C@H](NC(=O)[C@H](Cc1ccccc1)NC(=O)[C@H](CCC(=O)O)NC(=O)[C@H](CCCCNC(=O)COCCOCCNC(=O)COCCOCCNC(=O)CC[C@H](NC(=O)CCCCCCCCCCCCCCCCC(=O)O)C(=O)O)NC(=O)[C@H](C)NC(=O)[C@H](C)NC(=O)[C@H](CCC(N)=O)NC(=O)CNC(=O)[C@H](CCC(=O)O)NC(=O)[C@H](CC(C)C)NC(=O)[C@H](Cc1ccc(O)cc1)NC(=O)[C@H](CO)NC(=O)[C@H](CO)NC(=O)[C@@H](NC(=O)[C@H](CC(=O)O)NC(=O)[C@H](CO)NC(=O)[C@@H](NC(=O)[C@H](Cc1ccccc1)NC(=O)[C@@H](NC(=O)CNC(=O)[C@H](CCC(=O)O)NC(=O)C(C)(C)NC(=O)[C@@H](N)Cc1cnc[nH]1)[C@@H](C)O)[C@@H](C)O)C(C)C)C(=O)N[C@@H](C)C(=O)N[C@@H](Cc1c[nH]c2ccccc12)C(=O)N[C@@H](CC(C)C)C(=O)N[C@H](C(=O)N[C@@H](CCCNC(=N)N)C(=O)NCC(=O)N[C@@H](CCCNC(=N)N)C(=O)NCC(=O)O)C(C)C [Semaglutide, semaglutide]
CYP enzymes
  potential to inhibit or induce CYP enzymes: very low potential
Drug transporters
  potential to inhibit drug transporters: very low potential
[2]; absorption, metabolism and excretion trial with subcutaneous semaglutide
  elimination of intact semaglutide in urine: 3%
